Laboratory results: PMC3365486 (Behavioural Pharmacology, 2012)
pEC50, pIC50, pKi: −log10 of the molar value. Values joined by “and” are separate entries in the source; they are usually repeats but may differ in a detail not shown here. Identical values can stand only once. Counter-ions that a name gives are not always drawn. Marks after values point to notes of the source that are not given here.

Experiments:
[1] = target: recombinant human D2 receptors (Homo sapiens, UniProt P14416); test: In vitro competition binding, [3H]U-86170, CHO cell membranes
recombinant human D2 receptors, sequence (P14416 whole entry): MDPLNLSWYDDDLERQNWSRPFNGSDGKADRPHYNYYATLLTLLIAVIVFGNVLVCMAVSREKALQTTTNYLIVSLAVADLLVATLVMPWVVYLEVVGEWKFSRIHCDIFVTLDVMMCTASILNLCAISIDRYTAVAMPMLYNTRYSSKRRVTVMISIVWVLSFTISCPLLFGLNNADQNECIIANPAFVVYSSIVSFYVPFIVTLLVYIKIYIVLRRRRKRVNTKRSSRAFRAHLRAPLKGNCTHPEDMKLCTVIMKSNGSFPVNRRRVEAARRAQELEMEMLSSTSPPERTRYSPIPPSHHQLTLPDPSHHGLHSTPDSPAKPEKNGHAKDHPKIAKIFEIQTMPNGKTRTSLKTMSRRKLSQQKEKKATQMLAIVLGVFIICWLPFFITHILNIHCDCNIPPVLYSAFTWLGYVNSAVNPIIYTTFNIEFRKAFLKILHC

[2] = system: rats trained to self-administer cocaine; test: Fixed ratio; format: in vivo, rat; conditions: for FR5 responding when substituted for cocaine, relative to saline: cocaine and 7-OH-DPAT 0.032–1.0, PF-592,379 0.01–1.0 mg/kg/inj i.v., n=6
[3] = target: T1, recombinant human D3 receptors (Homo sapiens, UniProt P35462); conditions: cAMP accumulation; ref Attkins et al., 2010; cited from earlier work
T1 sequence (P35462 whole entry): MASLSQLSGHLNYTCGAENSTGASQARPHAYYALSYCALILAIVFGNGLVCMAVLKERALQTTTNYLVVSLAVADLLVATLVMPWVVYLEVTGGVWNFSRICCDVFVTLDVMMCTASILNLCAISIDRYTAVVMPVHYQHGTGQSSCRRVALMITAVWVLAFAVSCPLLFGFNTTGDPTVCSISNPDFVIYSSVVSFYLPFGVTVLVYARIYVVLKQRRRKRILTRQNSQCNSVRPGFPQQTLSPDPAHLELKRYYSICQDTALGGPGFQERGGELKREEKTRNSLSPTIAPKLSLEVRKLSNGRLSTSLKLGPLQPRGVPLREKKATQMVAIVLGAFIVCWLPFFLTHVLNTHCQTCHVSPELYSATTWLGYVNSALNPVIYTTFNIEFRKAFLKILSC

[4] = target: T1, recombinant human D3 receptors; test: In vitro competition binding, [3H]spiperone, CHO cell membranes; conditions: no binding up to 10 µM
[5] = system: rats trained to self-administer cocaine; test: Progressive ratio; format: in vivo, rat; conditions: for Final Ratio Achieved / Total Injections / Total Responses: maximally effective dose (cocaine 1.0, 7-OH-DPAT 0.32, PF-592,379 0.1 mg/kg/inf), mean (SEM); for PR responding when substituted for cocaine, relative to saline: cocaine 0.032–1.0, 7-OH-DPAT and PF-592,379 0.1–1.0 mg/kg/inj
[6] = target: recombinant human D5 receptors (Homo sapiens, UniProt P21918); test: In vitro competition binding, [3H]SCH23390, CHO cell membranes
recombinant human D5 receptors, sequence (P21918 whole entry): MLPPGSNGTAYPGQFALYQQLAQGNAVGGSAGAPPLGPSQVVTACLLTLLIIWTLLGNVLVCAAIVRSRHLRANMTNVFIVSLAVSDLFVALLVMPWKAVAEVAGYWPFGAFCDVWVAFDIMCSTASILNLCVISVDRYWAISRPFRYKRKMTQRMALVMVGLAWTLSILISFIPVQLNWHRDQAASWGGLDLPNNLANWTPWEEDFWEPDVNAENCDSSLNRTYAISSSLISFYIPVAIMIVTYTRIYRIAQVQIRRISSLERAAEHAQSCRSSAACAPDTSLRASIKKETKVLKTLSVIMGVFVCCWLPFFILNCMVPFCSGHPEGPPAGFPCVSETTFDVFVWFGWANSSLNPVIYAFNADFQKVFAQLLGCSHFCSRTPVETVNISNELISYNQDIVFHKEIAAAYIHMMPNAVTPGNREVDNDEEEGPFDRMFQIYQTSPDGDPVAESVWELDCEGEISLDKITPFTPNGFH

[7] = system: rats; test: Locomotor activity observed at large doses; format: in vivo, rat; conditions: PF-592,379 doses as large as 32.0 mg/kg
[8] = target: T1, recombinant human D3 receptors; test: Inhibition of forskolin-stimulated cAMP accumulation in intact CHO cells; format: cell-based
[9] = target: recombinant human D1 receptors (Homo sapiens, UniProt P21728); test: In vitro competition binding, [3H]SCH23390, CHO cell membranes
recombinant human D1 receptors, sequence (P21728 whole entry): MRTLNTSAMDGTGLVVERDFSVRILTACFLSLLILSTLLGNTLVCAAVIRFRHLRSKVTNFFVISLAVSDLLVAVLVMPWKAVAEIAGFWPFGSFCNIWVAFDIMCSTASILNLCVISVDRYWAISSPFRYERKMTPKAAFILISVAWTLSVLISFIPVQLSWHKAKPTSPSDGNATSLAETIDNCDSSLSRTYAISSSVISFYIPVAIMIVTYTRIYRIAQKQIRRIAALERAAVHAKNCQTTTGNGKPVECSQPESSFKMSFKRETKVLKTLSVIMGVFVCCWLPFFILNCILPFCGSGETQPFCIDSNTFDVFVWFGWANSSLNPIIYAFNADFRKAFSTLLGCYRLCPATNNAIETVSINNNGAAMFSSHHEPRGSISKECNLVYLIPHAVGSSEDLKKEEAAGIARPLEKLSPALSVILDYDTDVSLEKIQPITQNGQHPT

[10] = system: rats trained to discriminate 5.6 mg/kg cocaine from saline; conditions: rat, in vivo; for maximum cocaine-appropriate responding: sc
[11] = system: drug-naïve rats; test: Acquisition of IV self-administration under FR1 in drug-naïve rats; format: in vivo, rat; conditions: for % Met, Both Criteria Met / % Met, criterion ≥ 15 Injections per Session / % Met, criterion ≥ 70% Active Lever Selection: FR1, 18 sessions, n=7
[12] = system: D3 or D2 receptor; conditions: ref Collins et al., 2007; cited from earlier work
[13] = system: D3 receptor; conditions: ref Millan et al., 2002; cited from earlier work
[14] = system: D2 receptor; conditions: ref McCall et al., 2005; cited from earlier work
[15] = target: T2, recombinant human D4 receptors (Homo sapiens, UniProt P21917); test: Inhibition of forskolin-stimulated cAMP accumulation in intact CHO cells; format: cell-based; conditions: read-out: in vitro Functional Activity EC50, hD4, geometric mean (95%CI)
T2 sequence (P21917 1-419): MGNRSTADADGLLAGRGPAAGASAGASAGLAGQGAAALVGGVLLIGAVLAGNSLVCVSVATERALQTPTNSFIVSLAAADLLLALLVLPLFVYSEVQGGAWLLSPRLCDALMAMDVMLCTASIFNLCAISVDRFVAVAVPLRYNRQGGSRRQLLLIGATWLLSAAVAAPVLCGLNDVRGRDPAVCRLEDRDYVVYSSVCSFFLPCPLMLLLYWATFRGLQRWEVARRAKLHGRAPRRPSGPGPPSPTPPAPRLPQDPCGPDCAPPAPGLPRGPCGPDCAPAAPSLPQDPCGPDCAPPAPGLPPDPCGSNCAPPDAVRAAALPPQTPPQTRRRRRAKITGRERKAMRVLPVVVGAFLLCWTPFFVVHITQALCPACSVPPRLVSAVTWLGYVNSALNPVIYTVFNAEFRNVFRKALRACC

[16] = target: T2, recombinant human D4 receptors; test: In vitro competition binding, [3H]spiperone, CHO cell membranes; conditions: read-out: in vitro Binding Affinity Ki, hD4, geometric mean (95%CI)
[17] = 0.32 mg/kg per injection IV, FR1

CCCN1C[C@@H](c2ccc(N)nc2)OC[C@@H]1C [PF-592,379, 5-[(2R,5S)-5-methyl-4-propylmorpholin-2-yl]pyridin-2-amine]
pIC50 [1]: ≤ 5.00
injections per session when substituted for cocaine ([2]; FR5 or PR schedule, doses as large as 1.0 mg/kg): < 5 injections per session
FR5 responding when substituted for cocaine, relative to saline [2]: no different than saline
agonist efficacy at the D3 receptor [3]: full agonist
binding selectivity for D3 over D2, D1, and D5 receptors [4]: at least 46 fold
Final Ratio Achieved ([5]; PR): 8.9 (2.1)
Total Injections ([5]; PR): 1.3 (0.5)
Total Responses ([5]; PR): 18.5 (11.7)
PR responding when substituted for cocaine, relative to saline [5]: Low, saline-like levels of responding
pIC50 [6]: ≤ 5.00
effect on locomotor activity [7]: only a mild inhibition of locomotor activity
functional selectivity for D3 over D2 receptors [8]: at least 470 fold
pIC50 [9]: ≤ 5.00
responding at the largest doses tested, relative to baseline [10]: ~ 15 % of baseline
substitution for the discriminative stimulus effects of cocaine [10]: nearly exclusive responding on the saline-appropriate lever
maximum cocaine-appropriate responding [10]: 3.5%
Sessions to Criteria (SEM), criterion ≥ 15 Injections per Session [11, 17]: 3 (n.a.) sessions
% Met, Both Criteria Met ([11]; 0.32 mg/kg per injection IV): 0%
% Met, criterion ≥ 15 Injections per Session ([11]; 0.32 mg/kg per injection IV): 14%
% Met, criterion ≥ 70% Active Lever Selection ([11]; 0.32 mg/kg per injection IV): 0%
drug earned during the first few acquisition sessions ([11]; 0.32 mg/kg/inj, FR1): approximately 3 mg/kg
injections per session by the end of the acquisition period ([11]; 0.32 mg/kg/inj, FR1): < 5 injections per session

CCCN[C@H]1CCc2nc(N)sc2C1 [pramipexole]
range of doses over which the D3 or D2 receptor is selectively activated in vivo [12]: ≤ 30 fold
in vitro radioligand binding selectivity for the D3 over D2 [13]: ~ 100 fold

COC(=O)[C@H]1[C@@H](OC(=O)c2ccccc2)C[C@@H]2CC[C@H]1N2C [Cocaine, Cocaine HCl]
FR5 responding when substituted for cocaine, relative to saline [2]: maintained dose-dependent levels of responding
doses maintaining significantly more PR responding than saline ([5]; PR, i.v.): ≥ 0.1 mg/kg/inj
Final Ratio Achieved ([5]; PR): 172.0 (40.4) ^***
Total Injections ([5]; PR): 31.0 (3.4) ^***
Total Responses ([5]; PR): 1895.0 (687.3) ^**
PR responding when substituted for cocaine, relative to saline [5]: monotonic increases in responding
Sessions to Criteria (SEM), Both Criteria Met [11, 17]: 11.0 (2.3) sessions
Sessions to Criteria (SEM), criterion ≥ 15 Injections per Session [11, 17]: 11.8 (2.4) sessions
Sessions to Criteria (SEM), criterion ≥ 70% Active Lever Selection [11, 17]: 10.4 (2.1) sessions
% Met, Both Criteria Met ([11]; 0.32 mg/kg per injection IV): 71%
% Met, criterion ≥ 15 Injections per Session ([11]; 0.32 mg/kg per injection IV): 86%
% Met, criterion ≥ 70% Active Lever Selection ([11]; 0.32 mg/kg per injection IV): 71%

CN[C@@H]1Cc2cccc3[nH]c(=O)n(c23)C1 [sumanirole]
range of doses over which the D3 or D2 receptor is selectively activated in vivo [12]: ≤ 30 fold
in vitro radioligand binding selectivity for the D2 over D3 receptor [14]: ~ 200 fold

Br.CCCN(CCC)C1CCc2ccc(O)cc2C1 (racemic) [7-OH-DPAT, (±)-7-Hydroxy-2-dipropylaminotetralin HBr]
doses maintaining FR5 responding significantly greater than saline ([2]; FR5, i.v.): 0.1 mg/kg/inj
pEC50 [15]: 7.34
Total Injections ([5]; PR): 17.2 (5.4)
Total Responses ([5]; PR): 690.5 (303.7)
effect on locomotor activity [7]: stimulated locomotor activity
pKi [16]: 6.96
substitution for the discriminative stimulus effects of cocaine [10]: only partially substituted for cocaine
maximum cocaine-appropriate responding [10]: 59% and ~ 60%
Sessions to Criteria (SEM), criterion ≥ 15 Injections per Session [11, 17]: 15.5 (1.5) sessions
% Met, Both Criteria Met ([11]; 0.32 mg/kg per injection IV): 0%
% Met, criterion ≥ 15 Injections per Session ([11]; 0.32 mg/kg per injection IV): 28%
